Laboratory results taken from US8530172B2, “Methods and materials for assessing enzyme-nucleic acid complexes” (Mayo Foundation for Medical Education and Research, priority 2010, dated 2013).

What was measured:
[1] = biological target: T1, topo I-DNA covalent complexes (Homo sapiens, UniProt P11387); test: In vivo complexing of enzyme (ICE) assay with immunoblotting, A549 cells; format: cell-based; conditions: 10 μM drug, 60 minutes
T1 construct: separate topo I-DNA covalent complexes from free topo I in A549 cell lysates; endogenous in cells; host or cells: A549
T1 sequence (P11387 1-765): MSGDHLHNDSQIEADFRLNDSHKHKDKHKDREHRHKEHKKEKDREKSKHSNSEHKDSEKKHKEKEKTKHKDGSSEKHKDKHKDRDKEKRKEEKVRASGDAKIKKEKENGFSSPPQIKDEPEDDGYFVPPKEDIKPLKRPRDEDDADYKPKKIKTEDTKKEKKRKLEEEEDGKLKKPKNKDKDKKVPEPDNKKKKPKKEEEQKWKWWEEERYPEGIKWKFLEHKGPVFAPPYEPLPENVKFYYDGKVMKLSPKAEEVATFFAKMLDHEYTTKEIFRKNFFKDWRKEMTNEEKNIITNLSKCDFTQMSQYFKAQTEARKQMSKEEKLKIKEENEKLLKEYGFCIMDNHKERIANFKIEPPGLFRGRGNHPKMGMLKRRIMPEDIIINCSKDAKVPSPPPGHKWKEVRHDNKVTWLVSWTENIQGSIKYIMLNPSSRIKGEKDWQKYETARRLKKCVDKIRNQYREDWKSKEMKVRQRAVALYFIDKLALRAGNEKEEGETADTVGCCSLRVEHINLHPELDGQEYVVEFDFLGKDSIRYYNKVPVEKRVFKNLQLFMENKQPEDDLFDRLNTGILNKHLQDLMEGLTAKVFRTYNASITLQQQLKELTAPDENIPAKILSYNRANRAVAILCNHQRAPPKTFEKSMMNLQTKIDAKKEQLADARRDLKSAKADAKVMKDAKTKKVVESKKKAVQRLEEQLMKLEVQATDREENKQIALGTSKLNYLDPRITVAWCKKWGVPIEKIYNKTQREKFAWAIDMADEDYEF
Experimental: ICE assays were performed as described elsewhere (Subramanian et al., ICE Bioassay; DNA Topoisomerase Protocols: Volume II: Enzymology and Drugs, 2001, pp 137-147; and Gálvez-Peralta et al., Bioorganic & Medicinal Chemistry Letters, 19:4459-4462 (2009)). Briefly, A549 cells grown to 40-60% confluence in 100 mm tissue culture dishes were treated for 60 minutes with 0.1% (v/v) DMSO, 10 μM TPT, or 10 μM etoposide in serum-free RPMI containing 10 mM HEPES, pH 7.4 (medium B). At the end of the incubation, the medium was aspirated, and the cells were rapidly lysed in 1 mL lysis buffer consisting of 1% (w/v) sarkosyl, 10 mM Tris-HCl (pH 8.0 at 20-22° C.) and 1 mM EDTA. Lysate was layered on a cesium chloride gradient and ultracentrifuged at 125,000 g for 21 hours at 20° C. After centrifuge tubes were perforated at the bottom with a 23-gauge needle, 0.5 mL fractions were collected, assayed for the presence of DNA (detectable in fractions 1-4), and slot-blotted onto nitrocellulose membranes. Membranes were then blocked in 5% (w/v) milk in […] NaCl containing 10 mM Tris-HCl (pH 7.4 at 20-22° C.) for 2 hours and incubated in either C-21 anti-topo I IgM antibody (obtained from Y.-C. Cheng; Yale University; New Haven, Conn.) or the α-TopoI cc antibody (diluted to 1 μg/mL in blocking buffer). Western blotting was performed as described elsewhere (Kaufmann, Anal. Biochem., 296:283-286 (2001)).

[2] = biological target: T2, topo I-DNA covalent complexes (Mus musculus, UniProt Q04750); test: Flow cytometry, wild-type P388 cells; format: cell-based; conditions: 2 μM TPT
T2 construct: endogenous in cells; host or cells: P388 (wild type)
T2 sequence (Q04750 1-767): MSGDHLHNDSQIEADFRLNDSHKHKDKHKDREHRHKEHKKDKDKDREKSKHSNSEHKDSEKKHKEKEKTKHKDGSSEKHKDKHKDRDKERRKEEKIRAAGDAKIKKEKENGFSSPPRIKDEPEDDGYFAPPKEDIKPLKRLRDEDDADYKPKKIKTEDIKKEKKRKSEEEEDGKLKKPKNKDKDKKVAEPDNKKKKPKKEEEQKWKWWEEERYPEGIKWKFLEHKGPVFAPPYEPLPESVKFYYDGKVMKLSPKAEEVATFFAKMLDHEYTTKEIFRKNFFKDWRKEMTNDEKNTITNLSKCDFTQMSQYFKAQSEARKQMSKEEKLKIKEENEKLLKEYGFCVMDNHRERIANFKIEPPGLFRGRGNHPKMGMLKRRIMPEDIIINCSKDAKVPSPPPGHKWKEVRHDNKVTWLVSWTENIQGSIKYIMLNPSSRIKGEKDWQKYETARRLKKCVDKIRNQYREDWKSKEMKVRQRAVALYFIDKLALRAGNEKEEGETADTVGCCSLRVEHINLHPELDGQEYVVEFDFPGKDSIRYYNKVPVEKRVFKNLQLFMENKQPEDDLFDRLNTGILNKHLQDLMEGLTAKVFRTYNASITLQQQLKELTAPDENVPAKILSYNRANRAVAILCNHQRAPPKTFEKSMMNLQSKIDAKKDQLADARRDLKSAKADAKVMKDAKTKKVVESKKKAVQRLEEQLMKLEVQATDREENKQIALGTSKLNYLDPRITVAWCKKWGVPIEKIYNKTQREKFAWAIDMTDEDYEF
Experimental: (§1) A549 and K562 cells were stained using a modified protocol of a protocol described elsewhere (Muslimovic et al., Nat. Protoc., 3:1187-1193 (2008)). After 10^6 cells were treated for 1 hour with TPT in medium B, samples were centrifuged at 300 g for 5 minutes. Cells were then partially lysed for 1 minute in 100 μL extraction buffer, which consisted of 25 mM Tris-HCl (pH 7.5 at 20-22° C.), 1% (w/v) Triton X-100, 1 mM EDTA, 0.01% (w/v) BSA, and 0.2% (w/v) paraformaldehyde then fixed for 10 minutes at 20-22° C. by addition of 1 mL 2% (w/v) paraformaldehyde in PBS. Nuclei were pelleted and incubated for 60 minutes in 100 μL blocking buffer with primary antibody (1 μg/mL for A549 and P388 cells; and 5 μg/mL for K562 cells). Nuclei were washed by addition of 2 mL PBS, pelleted, and incubated for 30 minutes in 100 μL blocking buffer with 1 μg/mL Alexa Fluor 647-conjugated goat anti-mouse IgG (Invitrogen). Nuclei were washed by addition of 2 mL PBS, pelleted, and immediately analyzed on a FACSCanto II flow cytometer (BD Biosciences; San Jose, Calif.) on the APC channel (excitation: 633 nm; emission: 660/20 nm).

[3] = system: topo I-DNA covalent complexes; test: Flow cytometry, P388/CPT cells (lack detectable topo I); format: cell-based, mouse; conditions: 2 μM TPT
Experimental: as §1

[4] = biological target: T1, topo I-DNA covalent complexes; test: Immunofluorescence (confocal microscopy) in A549 cells; format: cell-based
Experimental: Immunofluorescence studies in A549 cells were performed as described elsewhere (Segovis et al., J. Immunol., 182:6933-6942 (2009)) with several modifications. After cells grown on nitric acid-etched coverslips were treated for 1 hour with TPT in medium B, coverslips were fixed in 2% (w/v) paraformaldehyde in calcium- and magnesium-free Dulbecco's phosphate buffered saline (PBS) for 10 minutes at room temperature, washed with PBS, and permeabilized with 0.25% (v/v) Triton X-100 in PBS for 5 minutes. To denature DNA-protein crosslinks, the coverslips were incubated in 1% SDS for 5 minutes (Brown et al., Histochem. Cell Biol., 105:261-267 (1996)), washed three times with PBS, and incubated in a blocking buffer consisting of PBS, 1% (v/v) glycerol, 0.1% glycerol from cold water fish, 5% (v/v) normal goat serum, 0.1% (w/v) BSA, and 0.4% (w/v) sodium azide. Coverslips were incubated overnight in primary antibody, followed by staining with Alexa Fluor 488-, 568-, or 647-conjugated secondary antibody (Invitrogen) diluted at a ratio of 1:1000. α-TopoI cc antibody was used at 1.2 μg/mL, and α-Topo I human IgG (Topogen; Port Orange, Fla.) was used at 1:1000. […] Quantitation and image processing were performed using the Zeiss Zen software package and Adobe Photoshop CS3.

[5] = biological target: T1, topo I-DNA covalent complexes; test: Band depletion assay, A549 cells (SDS-PAGE immunoblot and slot blot); format: cell-based; conditions: increasing TPT concentrations up to 100 μM, 60 minutes
Experimental: Band depletion assays were performed as described elsewhere (Kaufmann and […], Methods Mol. Biol., 94:253-268 (1999)). A549 cells grown in 100 mm culture dishes to 40-60% confluence were treated with increasing concentrations of TPT in medium B for 60 minutes. After treatment, cells were immediately solubilized in 6 M guanidine hydrochloride containing 250 mM Tris-HCl (pH 8.5 at 20° C.), 10 mM EDTA, 1% (v/v) 2-mercaptoethanol, and 1 mM freshly added phenylmethylsulfonyl fluoride. After preparation, for electrophoresis as described elsewhere (Kaufmann et al., Blood, 89:2098-2104 (1997), aliquots containing […] of protein (determined by the bicinchoninic acid method (Smith et al., Anal. Biochem., 150:76-85 (1985)) were either slot blotted for immunoblotting with α-TopoI cc antibody or separated on SDS-polyacrylamide gels, eletrophoretically transferred to nitrocellulose, and probed with C-21 anti-Topo I or, as a loading control anti-Hsp90 mouse (obtained from D. O. Toft; Mayo Clinic; Rochester, Minn.).

Row | shift in α-TopoI cc staining intensity [2] | α-TopoI cc staining intensity (average number of foci per cell or maximal mean fluorescence) ([4]; TPT 1 hour) | SMILES | topo I-DNA covalent complexes in DNA fractions after drug exposure (α-TopoI cc blot) [1] | shift in α-TopoI cc staining intensity [3] | non-nucleolar staining of topo I-DNA complexes (double staining) ([4]; TPT versus untreated) | topo I-DNA covalent complex signal (slot blot probed with α-TopoI cc) [5] | total topo I signal at 100 kDa (SDS-PAGE, immunoblot) [5]
1 |  |  | COc1cc([C@@H]2c3cc4c(cc3[C@@H](O[C@@H]3O[C@@H]5CO[C@@H](C)O[C@H]5[C@H](O)[C@H]3O)[C@H]3COC(=O)[C@H]23)OCO4)cc(OC)c1O [etoposide] | failed to detect |  |  |  | 
2 | rightward shift was detectable | dose-dependent increase | CC[C@@]1(O)C(=O)OCc2c1cc1n(c2=O)Cc2cc3c(CN(C)C)c(O)ccc3nc2-1 [TPT, Topotecan] | detected topo I that co-migrates with DNA | this shift was not observed | dramatic increase in non-nucleolar staining of topo I-DNA complexes | corresponding increase in signal for topo I-DNA covalent complexes | graduated decrease in the topo I signal at 100 kDa
